Results on 7 compounds are retold here after PubChem BioAssay (NCI).

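Test compounds were applied to cells in 96-well plates for 48 hours at 5 doses. At the TGI there is no net growth.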 A value given as a limit tells only on which side of the number the result lay.

Some test systems named below: LXFL 529 NSCLC; RXF-631 renal; SN12K1 renal; P388/ADR leukemia; P388 leukemia.
Holding throughout (assay): NCI tumour cell line growth inhibition, 48 h

In the case of `Cc1nc(Nc2nnc(-c3cc([N+](=O)[O-])cc([N+](=O)[O-])c3C)o2)sc1C(=O)CC(=O)Cc1nc2ccc(Cl)cc2[nH]c1=O`, the TGI with LXFL 529 NSCLC was > 100 µM.

Consider `CS(=O)(=O)c1nc(N)nc2nc[nH]c12`, for which the TGI in the assay on LXFL 529 NSCLC was > 100 µM. With `CCSC(=Nc1ccccc1)SC`, the TGI in the assay with LXFL 529 NSCLC and with RXF-631 renal was > 100 µM in each case. For `N#CN=Nc1cc(Cl)c(N=NC#N)cc1Cl`, in the assay with LXFL 529 NSCLC, the TGI was > 100 µM.

As for `O=C(O)C(Cc1cccs1)NC(=O)C(F)(F)F` (stereo not drawn), the TGI in the assay on SN12K1 renal, in the assay on P388/ADR leukemia and with P388 leukemia was > 100 µM each time. As to `CN(C)CCOc1cc2c(c3ccccc13)-c1ccccc1C2=O`, the TGI was determined as 2.04 µM with SN12K1 renal, 1.95 µM with P388/ADR leukemia and 2.7 µM in the assay with P388 leukemia. Regarding `CC(N)Cc1cccc(C(F)(F)F)c1` (stereo not drawn), the TGI in the assay with LXFL 529 NSCLC and in the assay with RXF-631 renal was > 100 µM throughout.
